From the NIST ThermoML archive (doi:10.1016/j.tca.2012.07.004)

Test: xn = mol fraction of the nth substance listed
Conditions: 101 kPa, Liquid; for mass density: Vibrating tube method; for viscosity: Vibrating wire viscometry; for speed of sound: ultrasonic interferometer

CCN(CC)CC.O=P(O)(O)O [triethylammonium dihydrogen phosphate] + CN1CCCC1=O
Conditions	mass density [kg/m3]	speed of sound [m/s]	viscosity [mPa·s]
298.15 K, x1 = 0.0115	1032	1574	1.95
298.15 K, x1 = 0.0257	1036.63	1580	2.23
298.15 K, x1 = 0.0702	1047.93	1602	2.5
298.15 K, x1 = 0.0995	1054.84	1624	3.22
298.15 K, x1 = 0.1498	1065.79	1657	4.42
298.15 K, x1 = 0.2409	1081.01	1711	6.12
298.15 K, x1 = 0.282	1086.8	1735	6.52
298.15 K, x1 = 0.3482	1094.7	1763	7.12
298.15 K, x1 = 0.4709	1105.46	1806	10.71
298.15 K, x1 = 0.6161	1114.03	1831	17.12
298.15 K, x1 = 0.6975	1117.42	1836	22.9
298.15 K, x1 = 0.7906	1120.24	1829	31.5
298.15 K, x1 = 0.9135	1123.51	1817	47.02
298.15 K, x1 = 0.9579	1124.64	1809	53.91
298.15 K, x1 = 1	1125.7	1794	64.31
303.15 K, x1 = 0.0115	1027.87	1558	0.97
303.15 K, x1 = 0.0257	1032.6	1570	1.24
303.15 K, x1 = 0.0702	1044.24	1595	2.49
303.15 K, x1 = 0.0995	1051.16	1620	3.17
303.15 K, x1 = 0.1498	1061.32	1656	3.8
303.15 K, x1 = 0.2409	1076.95	1706	5.27
303.15 K, x1 = 0.282	1083.03	1719	5.55
303.15 K, x1 = 0.3482	1090.71	1753	6.53
303.15 K, x1 = 0.4709	1101.42	1796	8.32
303.15 K, x1 = 0.6161	1110.51	1820	13.52
303.15 K, x1 = 0.6975	1114.2	1826	18.9
303.15 K, x1 = 0.7906	1117.34	1819	26.91
303.15 K, x1 = 0.9135	1121.34	1804	41.33
303.15 K, x1 = 0.9579	1123.03	1791	49.31
303.15 K, x1 = 1	1124.68	1769	57.1
308.15 K, x1 = 0.0115	1023.39	1539	1.07
308.15 K, x1 = 0.0257	1028.04	1544	1.05
308.15 K, x1 = 0.0702	1039.93	1577	1.97
308.15 K, x1 = 0.0995	1046.49	1600	2.57
308.15 K, x1 = 0.1498	1057.16	1636	2.91
308.15 K, x1 = 0.2409	1072.56	1689	4.13
308.15 K, x1 = 0.282	1078.25	1711	4.19
308.15 K, x1 = 0.3482	1086.21	1744	5.05
308.15 K, x1 = 0.4709	1097.31	1789	6.42
308.15 K, x1 = 0.6161	1106.86	1816	11
308.15 K, x1 = 0.6975	1111.06	1819	15.83
308.15 K, x1 = 0.7906	1114.71	1813	23.02
308.15 K, x1 = 0.9135	1119.77	1788	35.92
308.15 K, x1 = 0.9579	1121.61	1769	42.41
308.15 K, x1 = 1	1123.71	1757	49.53
313.15 K, x1 = 0.0115	1018.9	1540	1.61
313.15 K, x1 = 0.0257	1023.44	1552	1.37
313.15 K, x1 = 0.0702	1034.5	1576	1.48
313.15 K, x1 = 0.0995	1041.32	1594	1.81
313.15 K, x1 = 0.1498	1052.28	1630	1.88
313.15 K, x1 = 0.2409	1067.96	1685	1.95
313.15 K, x1 = 0.282	1074.06	1708	2.5
313.15 K, x1 = 0.3482	1081.89	1737	2.99
313.15 K, x1 = 0.4709	1093.3	1785	4.42
313.15 K, x1 = 0.6161	1103.08	1808	8.18
313.15 K, x1 = 0.6975	1107.89	1810	11.52
313.15 K, x1 = 0.7906	1111.88	1804	17.2
313.15 K, x1 = 0.9135	1117.73	1772	28.3
313.15 K, x1 = 0.9579	1119.92	1758	33.32
313.15 K, x1 = 1	1122.37	1730	38.31
